How the values were obtained:
human cortical spheroids = assay: MYRF+ oligodendrocytes in human cortical spheroids; type: cell-based; settings: 30 nM from days 61-71, assayed on day 94, versus untreated
Experimental: Human cortical spheroids were generated as described in Madhavan et al, (Nature Methods, 15:700-706, 2018). In brief, spheroids were left untreated, or treated with Cis-N-cyclohexyl-N-ethyl-3-(3-chloro-4-cyclohexylphenyl)prop-2-enylamine (30 nM) from days 61-71 and assayed […] on day 94 for MyRF+ oligodendrocytes (Rabbit anti-MyRF antibody was generously provided by M. Wegner and used at 1:1000).
For patterning of neurocortical spheroids, pluripotent stem cell colonies cultured on vitronectin (Gibco; A14700) were lifted with dispase (Gibco; 17105-041) at 37° C. for 10 min. Intact colonies were transferred to individual low-adherence V-bottom 96-well plates (S-Bio Prime; MS-9096VZ) in 200 μl of spheroid starter media with 10 μM ROCK inhibitor Y-27632 (Calbiochem; 688001), 10 μM dorsopmorphin (Sigma; P5499), and 10 μM SB-431542 (Sigma; S4317). […]
Spheroids for immunohistochemistry were initially fixed with 4% ice-cold paraformaldehyde for 45 min, washed three times in PBS, and equilibrated with 30% sucrose overnight. […] Two fields from the top and bottom of the spheroid and two fields from the edges of the central region of the spheroids were quantified. […]

EBP = assay: Analysis of mouse brain sterol levels in vivo; design: species or system C57-BL6 mice; settings: mice, 10 mg/kg once daily for 3 days, versus vehicle
Experimental: Ten to twelve week old male C57BL/6 mice were injected with Cis-N-cyclohexyl-N-ethyl-3-(3-chloro-4-cyclohexylphenyl)prop-2-enylamine dissolved in sterile saline daily for three days. Mice were anaesthetized with isoflurane and perfused with phosphate buffered saline to remove blood from the brain. Brains were collected and flash frozen using liquid nitrogen. The samples were pulverized and 50-100 milligrams of tissue were collected for further processing. A modified Folch protocol was used for extraction of sterols. Briefly, samples were resuspended in a 2:1 chloroform/methanol mixture and homogenized. Cell debris was removed by centrifugation at 4000 g for 10 min. The solution was dried under air and resuspended in hexane with a cholesterol-D7 standard and dried again. Lipids were derivatized with 70 al of bis(trimethylsilyl)trifluoroacetamide; 2 μls were injected and analyzed by GC/MS as described above.
Cis-N-cyclohexyl-N-ethyl-3-(3-chloro-4-cyclohexylphenyl)prop-2-enylamine was dissolved in a vehicle solution containing 80/10/10 saline/DMSO/Kolliphor. C57-BL6 mice were injected at 10 mg/kg once daily for 3 days with either vehicle (DMSO) or Cis-N-cyclohexyl-N-ethyl-3-(3-chloro-4-cyclohexylphenyl)prop-2-enylamine (n=5). (5 mice/condition). After 3 days, mice were anesthetized with isoflurane and perfused with phosphate buffered saline to remove blood from the brain. […] Lipids were derivatized with 70 ul of bis(trimethylsilyl) trifluoroacetamide; Samples were analyzed in […] using electron impact ionization; ion fragment abundances were integrated. 2 ul was analyzed by gas chromatography/mass spectrometry using an Agilent 5973 Network Mass Selective Detector equipped with a 6890 gas chromatograph system and a HP-5MS capillary column ([…]). Samples were analyzed in full scan mode using electron impact ionization; ion fragment peaks were integrated to calculate sterol abundance, and quantitation was relative to cholesterol-d7. The following ion fragments were used to quantitate each metabolite: zymostenol (458), zymosterol (456), Desmosterol. […]

## CCN(C/C=C\c1ccc(C2CCCCC2)c(Cl)c1)C1CCCCC1 [Cis-N-cyclohexyl-N-ethyl-3-(3-chloro-4-cyclohexylphenyl)prop-2-enylamine]
Human cortical spheroids
  MYRF+ oligodendrocytes in human cortical spheroids: selectively increase MYRF+ oligodendrocytes
EBP
  brain levels of desmosterol: decreased
  brain levels of zymostenol: increased
  brain levels of zymosterol: increased

Source: patent publication US10918610B2, “Compounds and methods of promoting myelination” (Case Western Reserve University, priority 2017, dated 2021)
